{"source": "patent US20220202696A1", "about": "“AGENT FOR PROMOTING COLLAGEN PRODUCTION, MEDICAMENT, COSMETIC, AND METHOD FOR MANUFACTURING AGENT FOR PROMOTING COLLAGEN PRODUCTION” (Murata Manufacturing Co., Ltd., priority 2019, published 2022)", "system": "Normal human dermal fibroblasts", "experiment": "Type I collagen production in aging induction-treated fibroblasts (ELISA)", "format": "cell-based", "conditions": "positive control at 25 μmol/L, 48 hours culture, aging induction-treated cells, ELISA of medium", "procedure": "Normal human dermal fibroblasts were maintained using a DMEM medium (+5% FBS) in a culture vessel to confluence. […] After this procedure was repeated once daily for 4 days, the cells were further cultured in DMEM (10% FBS) for 3 days, and the cultured cells were obtained and used as aging induction-treated cells. The aging induction of the cells was confirmed by senescence-associated beta-galactosidase (SA-β-Gal, an aging marker) staining. The aging induction-treated cells were seeded in 48-well plate at a cell density of 5.0×10^4 cells/well using a DMEM medium (+5% FBS). […] Then, the cells were cultured for 48 hours, thereafter the medium was collected, and the amount of type I collagen in the medium was quantified by an ELISA method (direct ELISA using an anti-Human Collagen Type I antibody (Rabbit)).", "data": [{"compound": "O=C1O[C@H]([C@@H](O)CO)C(O)=C1O", "note": "[vitamin C]", "values": [{"measurement": "production of type I collagen", "result": "increased"}]}]}
